Earlier results as cited in patent US12075777B2, “Antimicrobial formulation” (Anitox Corporation, priority 2011, dated 2024).

Key:
[1] = tested on: Staphylococcus aureus, E. coli and Salmonella typhimurium
[2] = 0, 0.1, 0.2, 0.3 and 0.4% in water
yeast = tested on: yeast; design: dose or concentration left out as unconfirmed; conditions: 10^5 CFU/bottle; equivalence: trans-2-hexenal with thermal treatment (56° C.) vs citral
soybean seed = conditions: 1.8 of trans-2-hexenal/mL of air
peaches and nectarines = conditions: at 40 μL/L
pears and apples = conditions: 12.5 μL/L; twenty four hours to seven days exposure
[3] = tested on: A. flavus, P. notatum, A. alternate, F. oxysporum, Cladosporium species, B. subtilis and A. tumerfaciens

CC/C=C/CC=O [(3E)-hexenal]
effective level in controlling bacteria [1]: 3 to 30 µg/mL

CC(=O)O [acetic acid]
effect on performance or intestinal microbial counts [2]: did not affect performance or intestinal microbial counts

CC(C)=CCCC(C)=CC=O [citral]
concentration in growth media that reduced the concentration of E. coli (E. coli): more than 0.01%
concentration with bactericidal effect (E. coli): 0.08%
concentration controlling yeast in beverages (yeast): 100-120 ppm

CCC/C=C/C=O [trans-2-hexenal]
inhibition of soybean seed germination (soybean seed): ~100%
phytotoxicity (peaches and nectarines): phytotoxic
body weight and intake (4000 ppm in diet, 13 wk): reduction in body weight and intake, but it was not significant
changes in hematological parameters or organ weights (dietary levels of 0, 260, 640, 1600 or 4000 ppm fed for 13 wk): did not induce any changes
effect on fruit appearance, color, firmness, soluble solids content or titrateable acidity (pears and apples): did not affect
concentration that completely inhibited growth [3]: 8 ng/L air
